The source of these data is patent publication US20210147481A1, “PEPTIDE-BASED INHIBITORS OF MARK FAMILY PROTEINS” (Ohio Universtiy, priority 2017, published 2021).

Where two headings read alike, the source gives them in different places. Peptide text beside a SMILES is read from it. * marks the point of attachment. 5FAM = O=C1OC2(c3ccc(O)cc3Oc3cc(O)ccc32)c2ccc(C(=O)*)cc21

Series [1] deals with MARK2 (Rattus norvegicus, UniProt O08679). The series is described as follows: Immunofluorescence of PAO-induced MARK2-mediated tau Ser262 phosphorylation in neurons. In kind it is cell-based.
Sequence of MARK2 (Rattus norvegicus, UniProt O08679) (O08679 whole entry): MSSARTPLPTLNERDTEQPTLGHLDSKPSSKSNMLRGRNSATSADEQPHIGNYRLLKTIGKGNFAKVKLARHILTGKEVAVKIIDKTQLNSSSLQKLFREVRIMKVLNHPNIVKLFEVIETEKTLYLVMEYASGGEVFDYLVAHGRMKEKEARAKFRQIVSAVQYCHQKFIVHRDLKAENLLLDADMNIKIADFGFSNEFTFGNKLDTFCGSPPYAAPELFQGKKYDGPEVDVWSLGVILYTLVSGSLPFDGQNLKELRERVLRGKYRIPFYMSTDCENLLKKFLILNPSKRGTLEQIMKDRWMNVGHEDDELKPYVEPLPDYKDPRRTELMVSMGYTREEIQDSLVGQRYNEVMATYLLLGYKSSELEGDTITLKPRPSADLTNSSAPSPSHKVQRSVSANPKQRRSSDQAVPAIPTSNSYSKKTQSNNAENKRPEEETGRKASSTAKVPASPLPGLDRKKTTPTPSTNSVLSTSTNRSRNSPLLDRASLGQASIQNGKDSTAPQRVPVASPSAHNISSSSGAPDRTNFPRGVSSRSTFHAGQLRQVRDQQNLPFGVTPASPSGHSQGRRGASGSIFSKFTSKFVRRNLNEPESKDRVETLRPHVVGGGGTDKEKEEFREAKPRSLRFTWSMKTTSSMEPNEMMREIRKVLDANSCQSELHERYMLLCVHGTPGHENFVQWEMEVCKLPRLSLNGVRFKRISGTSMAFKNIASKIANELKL
Series [2] has as its system rat primary cortical neurons.
Series [3] has as its target MARK2 (Homo sapiens, UniProt Q7KZI7). The series is described as follows: Antibody-linked fluorescence polarization assay of tR1 phosphorylation by MARK2. In kind it is biochemical. To be noted: 10 μM FlutR1, MARK2, ATP, antibody versus absence of MARK2, ATP, or antibody. How it is done: The ability for MARK2 to phosphorylate tR1 in vitro was further validated by incubating ^FlutR1 peptides with MARK2 and ATP and monitoring the fluorescence polarization of the solution following addition of antibodies specific for hTau pSer262 (FIG. 6C). In these experiments, ^FlutR1 peptides and MARK2 were incubated with and without ATP for 60 minutes at 32° C. in phosphorylation buffer. Following incubation, antibodies specific for hTau pSer262 were added to the reaction and allowed to incubate for an additional 60 minutes at room temperature. Due to the slower tumbling rate of an antibody-linked (and presumably phosphorylated) ^FlutR1 peptide, it is believed that the fluorescence polarization of the phosphorylated tR1 peptide would be higher than that of its un-phosphorylated counterpart.
Analysis of the activity of MARK2 proteins was performed in 60-μL phosphorylation buffer (50 mM Tris-HCl, pH 8.0, 5 mM MgCl2, 2 mM EGTA, 0.5 mM DTT, 0.5 mM benzamidine HCl, 0.5 mM PMSF) containing 100 μM ATP, 10 μM of ^FlutR1, and 10 nM MARK2. The reaction mixture was incubated at 32° C. for 1 hour. […] Fluorescence polarization was then measured using a SpectraMax M5e multi-mode plate reader (Molecular Devices, Sunnyvale, Calif.) in 384-well plates (#3575, Corning, Corning, N.Y.). […]
In general terms: Polarisation of emitted light reports the rotation of a fluorescent probe.

Sequence of MARK2 (Homo sapiens, UniProt Q7KZI7) (Q7KZI7 whole entry): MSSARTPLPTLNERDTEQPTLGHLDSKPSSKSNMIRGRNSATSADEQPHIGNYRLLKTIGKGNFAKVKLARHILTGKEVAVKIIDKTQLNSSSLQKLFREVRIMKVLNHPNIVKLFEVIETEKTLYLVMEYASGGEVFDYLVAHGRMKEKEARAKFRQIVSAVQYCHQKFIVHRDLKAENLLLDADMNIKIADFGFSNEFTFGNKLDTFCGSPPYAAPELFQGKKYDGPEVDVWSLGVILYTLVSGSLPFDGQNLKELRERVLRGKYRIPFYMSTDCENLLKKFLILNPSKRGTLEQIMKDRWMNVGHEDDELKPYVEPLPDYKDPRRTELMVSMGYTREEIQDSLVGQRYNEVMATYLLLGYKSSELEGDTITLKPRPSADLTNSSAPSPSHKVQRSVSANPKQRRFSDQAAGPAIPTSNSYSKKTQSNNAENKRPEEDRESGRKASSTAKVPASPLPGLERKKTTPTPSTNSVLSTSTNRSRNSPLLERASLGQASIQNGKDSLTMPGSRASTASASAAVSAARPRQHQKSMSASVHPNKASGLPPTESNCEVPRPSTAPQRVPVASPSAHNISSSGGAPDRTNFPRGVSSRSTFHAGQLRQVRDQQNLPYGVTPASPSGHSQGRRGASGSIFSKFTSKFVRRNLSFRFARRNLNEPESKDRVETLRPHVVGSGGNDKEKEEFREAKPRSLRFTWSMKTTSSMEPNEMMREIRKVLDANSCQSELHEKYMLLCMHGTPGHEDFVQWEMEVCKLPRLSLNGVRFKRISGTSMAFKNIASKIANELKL

For the compound `CO/C1=C\C(C)=C\[C@@H](C)[C@@H](O)[C@@H](C)C/C(C)=C/C=C/[C@H](OC)[C@@H]([C@@H](C)[C@@H](O)[C@H](C)[C@@]2(O)C[C@@H](O)[C@H](C)[C@@H](C(C)C)O2)OC1=O` [bafilomycin A1, reference compound], at MARK2 [1] (without tR1, 5 μM PAO), the “effect of endosome disruptor alone on PAO-induced MARK2 mediated phosphorylation of tau” value is “Neither bafilomycin A1 nor chloroquine treatments alone affected”.

For `CCN(CC)CCCC(C)Nc1ccnc2cc(Cl)ccc12` (centres unmarked) [chloroquine, reference compound], the “effect of endosome disruptor alone on PAO-induced MARK2 mediated phosphorylation of tau” value on MARK2 [1] is recorded as “Neither bafilomycin A1 nor chloroquine treatments alone affected”.

On to `CC[C@H](C)[C@H](NC(=O)[C@H](CCCCN)NC(=O)[C@H](CO)NC(=O)[C@H](CCCCN)NC(=O)[C@@H](NC(=O)[C@H](CC(N)=O)NC(=O)c1ccc2c(c1)C(=O)OC21c2ccc(O)cc2Oc2cc(O)ccc21)C(C)C)C(=O)NCC(=O)N[C@@H](CO)C(=O)N[C@H](C(=O)N[C@@H](CCC(=O)O)C(=O)N[C@@H](CC(N)=O)C(=O)N[C@@H](CC(C)C)C(=O)N[C@@H](CCCCN)C(N)=O)[C@@H](C)O` [^FlutR1] (5FAM-NVKSKIGSTENLK-NH2), for which the “intracellular uptake (fluorescence)” value in series [2] (10 μM FlutR1 alone, 4 hours) is “distinct fluorescent puncta within the cell body and neurites”; in series [2] (10 μM FlutR1 with 5 μM PAO), “did not seem to affect the uptake”; in series [2] (10 μM FlutR1 with 10 mM sodium azide) it was “significant loss of fluorescent puncta within the cell body and neurites”. Further, the “intracellular distribution (fluorescence)” value is “no fluorescent puncta following treatment and diffuse green fluorescence within the cell soma” in series [2] (10 μM FlutR1 with 50 nM Baf); “significant loss of discrete fluorescent puncta” in series [2] (10 μM FlutR1 with 100 μM CLQ). The “fluorescence polarization after addition of hTau pSer262 antibody” value at MARK2 [3] is recorded as “polarization to be highest in solutions containing all reaction components”.
